Experimental data from PubChem BioAssay (NCI).
Where “and” joins values, the source holds several entries; their conditions need not be identical. Identical values can stand only once.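 Step 1: Grow cells in 96-well plates. Step 2: Expose to compound for 48 hours at 5 concentrations. Step 3: Interpolate endpoints linearly; if unreached, use highest concentration. Here, GI50 denotes the concentration required for 50% inhibition of growth. The concentration for full growth arrest is given as TGI.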

Assays:
Assay in all cases: NCI tumour cell line growth inhibition, 48 h
[1] = tested on: SF-268 CNS
[2] = tested on: ACHN renal
[3] = tested on: SF-295 CNS
[4] = tested on: TK-10 renal
[5] = tested on: SNB-19 CNS
[6] = tested on: OVCAR-8 ovarian
[7] = tested on: MOLT-4 leukemia
[8] = tested on: MCF7 breast
[9] = tested on: HT29 colon
[10] = tested on: NCI-H226 lung

CN1CCc2cc3c(cc2C1O)OCO3 (stereo not drawn)
TGI [1]: 30.8 µM and > 100 µM
GI50 [2]: 19.2 µM and > 100 µM
TGI [2]: 36.2 µM and > 100 µM
GI50 [3]: 26.7 µM and > 100 µM
TGI [3]: > 100 µM
GI50 [4]: 19.7 µM and > 100 µM
TGI [4]: 39.6 µM and > 100 µM
GI50 [5]: 34.6 µM and > 100 µM
TGI [5]: > 100 µM
GI50 [6]: 21.6 µM and > 100 µM
TGI [6]: 51.6 µM and > 100 µM
GI50 [7]: 23.4 µM and > 100 µM
TGI [7]: 81.6 µM and > 100 µM
TGI [8]: 23.3 µM and > 100 µM
GI50 [9]: 21.4 µM and > 100 µM
TGI [9]: 47.1 µM and > 100 µM

COc1cc(-c2nn3c(/C=C4/C(=O)Nc5ccccc54)c(-c4ccc(C)cc4)nc3s2)cc(OC)c1OC
GI50 [1]: 3.62 µM
TGI [1]: > 100 µM
GI50 [2]: 4.98 µM
TGI [2]: 23.7 µM
GI50 [3]: 5.04 µM
TGI [3]: 31.1 µM
GI50 [4]: 1.69 µM
TGI [4]: 4.38 µM
GI50 [5]: 7.89 µM
TGI [5]: 34.2 µM
GI50 [6]: 3.71 µM
TGI [6]: > 100 µM
GI50 [10]: 22.5 µM
TGI [10]: 59.9 µM

CCCCCCCCCCCOC(=S)NC(C)C
TGI [1]: 42.7 µM
TGI [2]: 35.9 µM
TGI [3]: 40.7 µM
TGI [4]: 86.1 µM
TGI [5]: > 100 µM
TGI [6]: 31.7 µM
TGI [7]: 36.2 µM
TGI [9]: 34.6 µM

Cc1ccc(C)c(NC(=O)C(=O)CC(=O)C2CCOC2=O)c1 (stereo not drawn)
TGI [1]: > 100 µM
TGI [2]: > 100 µM
TGI [3]: > 100 µM
TGI [4]: > 100 µM
TGI [5]: > 100 µM
TGI [6]: > 100 µM
TGI [9]: > 100 µM
TGI [10]: > 100 µM

O=C(NCCCCCCCCNC(=O)c1cnc2ccccc2n1)c1cnc2ccccc2n1
TGI [1]: > 100 µM
TGI [2]: > 100 µM
TGI [3]: > 100 µM
TGI [4]: > 100 µM
TGI [5]: > 100 µM
TGI [6]: > 100 µM
TGI [7]: > 100 µM
TGI [9]: > 100 µM
TGI [10]: > 100 µM

COc1ccc(/C(=N/NC(N)=O)C2(O)C(=O)Nc3ccc([N+](=O)[O-])cc32)cc1 (stereo not drawn)
TGI [1]: 40.6 µM
TGI [2]: 30.6 µM
TGI [5]: > 10 µM
TGI [6]: 47.7 µM
TGI [7]: 50 µM
TGI [9]: 42.2 µM
TGI [10]: > 100 µM

COc1cc2c(/C=N\N=C(N)N)c(Cl)[nH]c2cc1C
GI50 [1]: 15.2 µM
TGI [1]: 40.7 µM
GI50 [2]: 11.1 µM
TGI [2]: 23.6 µM
GI50 [3]: 8.28 µM
TGI [3]: 23.1 µM
GI50 [4]: 15.7 µM
TGI [4]: 29.5 µM
GI50 [5]: 12.7 µM
TGI [5]: 29.2 µM
GI50 [6]: 15.4 µM
TGI [6]: 38.6 µM
GI50 [7]: 2.82 µM
TGI [7]: 7.41 µM
GI50 [8]: 6.47 µM
TGI [8]: 27.5 µM
GI50 [10]: 10.5 µM
TGI [10]: 26.3 µM

COc1c2c(c3c(c1C1OC(C)[C@@H](C)O1)CC(C)(C)O3)C(=O)c1ccccc1C2=O (stereo partly drawn)
TGI [1]: > 100 µM
TGI [2]: > 100 µM
TGI [3]: > 100 µM
TGI [4]: > 100 µM
TGI [5]: > 100 µM
TGI [6]: > 100 µM
TGI [9]: > 100 µM
TGI [10]: > 100 µM

c1ccc(SC2(Sc3ccccc3)CCCC2)cc1
TGI [1]: > 100 µM
TGI [2]: > 100 µM
TGI [3]: > 100 µM
TGI [4]: > 100 µM
TGI [5]: > 100 µM
TGI [6]: > 100 µM
TGI [7]: > 100 µM

Cc1ccc(C(=O)O/N=C2/CCCC/C2=C\c2ccccc2)cc1
TGI [1]: 28.2 µM
TGI [2]: > 100 µM
TGI [3]: > 100 µM
TGI [4]: > 100 µM
TGI [5]: > 100 µM
TGI [6]: > 100 µM
TGI [9]: > 100 µM
TGI [10]: > 100 µM
